≈ marks a conversion by molar mass, not a printed value.

For orientation: solubility (kinetic) means the concentration staying in solution when a stock, usually in DMSO, is diluted into the medium.

For this data set the following is noted: buffer; pH 7.4; 200.0 µM.
On to `CN1CCN(c2cc3c(cc2F)c(=O)c(C(=O)O)cn3CCF)CC1`, for which the solubility (kinetic) is over 52.7 µg/mL. With `COCCNCC(=O)Nc1ccc(OC(F)(F)F)cc1.Cl` the figure was 48.8 µg/mL. With `C=CCNC(=O)CSCc1ccc(Br)cc1` the figure was over 45 µg/mL; with `CC(NC(=O)c1ccccc1Cl)C1CC2CCC1C2` (stereo not given), 19.7 µg/mL (≈ 70.9 µM); with `Cc1cc(C)n2nc(-c3ccco3)nc2n1`, over 32.1 µg/mL. With `CC(=O)c1ccc(N2CCc3ccccc3C2)c([N+](=O)[O-])c1` the figure was 8.3 µg/mL (≈ 28 µM). As for `Cc1ccccc1N1C(=O)c2ccccc2C1O` (stereo not given), the solubility (kinetic) came to 35.8 µg/mL (≈ 150 µM). As for `Nc1nc2sc3c(c2cc1C(=O)NCC(=O)O)CCCC3`, the figure is over 45.8 µg/mL.

Compound `C/C(=N\O)c1ccc2c(c1)CC(C)O2` (stereo not given) came in with a kinetic solubility of over 28.7 µg/mL. With `CC1=C([N+](=O)[O-])C(c2ccccc2Cl)NC(=O)N1C` (stereo not given) the figure was over 42.3 µg/mL; with `O=C(Nc1cccc2c1CCCC2)c1ccccc1F`, 2.5 µg/mL (≈ 9.28 µM). In the case of `Cn1ccc(C(=O)Nc2ccc3c(c2)OCCO3)n1`, the solubility (kinetic) was over 38.9 µg/mL. With `Cc1oc(-c2ccccc2)cc1C(=O)NCc1ccncc1`, the kinetic solubility was found to be 36.7 µg/mL (≈ 126 µM). As for `CC(C)(C)NC(=O)C1CC(=O)N(CCc2ccc(F)cc2)C1` (stereo not given), the figure is over 46 µg/mL; as for `Cc1cc2nc3n(c2cc1C)CCCN3`, over 30.2 µg/mL; as for `CCCCc1nc2cc(Cl)ccc2o1`, under 0.4 µg/mL. `CCN(Cc1nc(-c2cccc(C)c2)no1)C(=O)c1ccco1` showed a kinetic solubility of 44.4 µg/mL (≈ 143 µM).

The compound `O=C(CSc1nccc(=O)[nH]1)Nc1ccc(Oc2ccccc2)cc1` gave a kinetic solubility of 11.5 µg/mL (≈ 32.5 µM). As for `O=C(Cn1ccc([N+](=O)[O-])n1)NCCc1c[nH]c2ccccc12`, the figure is over 47 µg/mL; as for `CCN(CC)C(=S)Oc1ccc(Cl)cc1Cl`, 0.9 µg/mL (≈ 3.24 µM). With `O=C(/C=C/c1c(F)cccc1Cl)N1CCOCC1` the figure was 39.8 µg/mL (≈ 148 µM); with `COc1ccc(C(=O)c2sc(Nc3ccccc3)nc2C)cc1`, 3.4 µg/mL (≈ 10.5 µM). As for `Cc1c(C(=O)Oc2ccc(Cl)cc2)n(C)oc1=O`, the figure is 37 µg/mL (≈ 138 µM). For the compound `CC1CN(S(=O)(=O)c2cccc(C(=O)NCCc3ccc(S(N)(=O)=O)cc3)c2)CC(C)O1` (stereo not given), the solubility (kinetic) was over 72.2 µg/mL. With `CC1(C)C2CCC1(C)C([NH2+]c1ccccc1)C2.[Cl-]` (stereo not given) the figure was under 0.6 µg/mL; with `O=C(Nc1ccc2c(c1)OCO2)Nc1ccccc1F`, 2.7 µg/mL (≈ 9.84 µM).

`COC(=O)c1ccc(N2CCN(c3ccccc3)CC2)nc1` displayed a kinetic solubility of 1.7 µg/mL (≈ 5.72 µM). As for `CC1CC(C)CN(C(=O)COC(=O)Cc2ccc(Cl)cc2)C1` (stereo not given), the figure is 41.3 µg/mL (≈ 128 µM); as for `Cc1ccc2oc(C(=O)N3CCN(CCO)CC3)c(C)c2c1`, over 45.4 µg/mL; as for `CCc1ccc(OCC(=O)Oc2ccc([N+](=O)[O-])cc2)cc1`, 29.4 µg/mL (≈ 97.6 µM). With `Cl.OC(c1ccccc1)C(CN1CCOCC1)c1ccccc1` (stereo not given) the figure was over 50.1 µg/mL; with `S=C(Nc1cccnc1)N1CCCCC1`, over 33.2 µg/mL.

Compound `O=C(c1ccc([N+](=O)[O-])cc1)N1CCN(c2cccc3[nH]ccc23)CC1` registered a solubility (kinetic) of 50.7 µg/mL (≈ 145 µM). With `CN1c2ccsc2C(=O)/C(=C\Nc2cccc(C(F)(F)F)c2)S1(=O)=O` the figure was under 0.4 µg/mL. As for `N#C/C(=C/c1cccc([N+](=O)[O-])c1)C(=O)Nc1ccccc1O`, the figure is 10.7 µg/mL (≈ 34.6 µM). With `COc1cccc(CC(=O)Nc2ccc(S(=O)(=O)Nc3nccs3)cc2)c1` the figure was over 60.5 µg/mL. With `Cn1c(CC(=O)NNC(=O)c2cccnc2)nc2ccccc21`, the solubility (kinetic) is over 46.4 µg/mL. As for `COc1ccc(C(=O)Nc2ccc(C(=O)Nc3cccnc3)cc2)cc1`, the figure is 0.6 µg/mL (≈ 1.73 µM); as for `Cc1cccc(NC(=S)NC(=O)C2CC2)c1`, over 35.1 µg/mL; as for `O=C(NN1CCOCC1)c1ccc(Br)cc1`, over 42.8 µg/mL. With `COc1ccccc1NS(=O)(=O)c1ccc(N2CCOCC2)c(N)c1` the figure was 5.1 µg/mL (≈ 14 µM). With `O=C1ON=C(c2ccccc2)/C1=C\c1ccco1` the figure was 35.2 µg/mL (≈ 147 µM); with `CCCN1C2CCCC1CC(NC(=O)NC13CC4CC(CC(C4)C1)C3)C2` (stereo not given), over 53.9 µg/mL.

On to `O=C(CCC1CCN(Cc2ccccc2O)CC1)NC1CC1`, for which the solubility (kinetic) was determined as 42.6 µg/mL (≈ 141 µM). With `COc1ccc2c(c1)c(C(C)=O)c(C)n2-c1ccc(C(C)=O)cc1` the figure was under 0.7 µg/mL. In turn, `COc1ccc(N2C(=O)CC(c3ccccc3)C2=O)cc1` (stereo not given) displayed a kinetic solubility of 11.2 µg/mL (≈ 39.8 µM). `COc1cc(N)ccc1NC(=O)c1cc2ccccc2o1` showed a solubility (kinetic) of over 42.3 µg/mL. Take `COc1ccc(CCNC(=O)C2CC=CCC2C(=O)O)cc1` (stereo not given): the solubility (kinetic) was over 45.5 µg/mL. Regarding `O=C(Nc1cccnc1)c1ccc([N+](=O)[O-])o1`, the solubility (kinetic) was over 35 µg/mL. With `Clc1cc(Br)ccc1NCc1cccnc1` the figure was 24.7 µg/mL (≈ 83 µM); with `COc1ccc(NC(=O)CN(C)C(=O)c2ccc3ccccc3n2)cc1`, over 52.4 µg/mL; with `C/C(=N\OCC(=O)Nn1c(C)nc2ccccc2c1=O)c1cccs1`, over 53.5 µg/mL.

For the compound `CC(NC(=O)/C(=C\c1ccco1)NC(=O)c1ccco1)C(=O)O` (stereo not given), the solubility (kinetic) was 46.5 µg/mL (≈ 146 µM). As for `O=C(/C=C/c1ccccc1Cl)NCCCn1ccnc1`, the figure is 38.9 µg/mL (≈ 134 µM). As for `CCN(CC)C(=O)c1cccc2nc3ccccc3nc12`, the figure is over 41.9 µg/mL; as for `Cc1cc(C)c(C)c(S(=O)(=O)N(C)CCc2ccccn2)c1C`, over 49.9 µg/mL; as for `COc1ccc(CC(=O)NCC(=O)NC(Cc2ccccc2)C(=O)O)cc1` (stereo not given), over 55.6 µg/mL. As for `O=C(CSc1ccccn1)NCc1ccc2c(c1)OCO2`, the figure is over 45.4 µg/mL; as for `Cc1cc(=O)[nH]c(SCC(=O)Nc2ccc(F)cc2)c1C#N`, over 47.6 µg/mL; as for `CC(C)(C)NC(=O)CSc1nc2ccccc2c(=O)[nH]1`, 30.9 µg/mL (≈ 106 µM).

Compound `Cl.O=C(CN1CCCC1)Nc1cccc(Cl)c1` registered a solubility (kinetic) of over 41.3 µg/mL. Consider `CCOC(=O)Cc1cc(=O)n2[nH]c(C)c(-c3ccccc3OC)c2n1`, for which the kinetic solubility is over 51.2 µg/mL.

`Cc1ccc(-c2nc(-c3ccncc3)no2)cc1C` registered a kinetic solubility of 0.7 µg/mL (≈ 2.79 µM). For the compound `COC(=O)C(Cc1c[nH]c2ccccc12)NC(=O)c1cccs1` (stereo not given), the solubility (kinetic) is over 49.3 µg/mL.

Take `Cc1cc(=O)oc2cc(NC(=O)c3ccc(OC(F)F)cc3)ccc12`: the kinetic solubility was determined as 1 µg/mL (≈ 2.9 µM). With `Cc1cccn2c(=O)c(/C=N/O)c(NCc3ccccc3)nc12` the figure was under 0.2 µg/mL; with `Cl.c1ccc(C2NCCc3ccccc32)cc1` (stereo not given), over 36.9 µg/mL.

Turning to `O=C(CN1CCN(c2ccc(F)cc2)CC1)Nc1nccs1`, the kinetic solubility was 24.5 µg/mL (≈ 76.5 µM). With `Cc1cccc(N2N=C(C(=O)N3Cc4ccccc4CC3C(N)=O)CCC2=O)c1` (stereo not given) the figure was over 58.6 µg/mL; with `Cc1cccc(-c2noc(CCCC(=O)NCC3CCCO3)n2)c1` (stereo not given), over 49.4 µg/mL; with `Cn1ccc(C(=O)OCC(=O)Nc2ccccc2Cl)n1`, over 44.1 µg/mL. For the compound `O=C(CSCc1ccc(Cl)cc1)Nc1cccc(C(=O)O)c1`, the solubility (kinetic) is over 50.4 µg/mL.

The compound `CCCOc1ccc(CSC(=N)N)cc1C(=O)OC.Cl` came in with a kinetic solubility of 42.6 µg/mL. For `O=C(NCc1ccc(Cl)c(Cl)c1)C1CCCC1`, the kinetic solubility amounted to 32.6 µg/mL (≈ 120 µM). With `Cc1cc(C)cc(NC(=O)CCN2CCCC2)c1` the figure was 35.3 µg/mL (≈ 143 µM).

Values taken from PubChem BioAssay AID1996.
